How the values were obtained:
[1] = Stability assessed as half life at pH 7; type: physicochemical; conditions: buffer
[2] = Stability assessed as half life at pH 3; type: physicochemical; conditions: buffer
L1210 = test: Cytotoxicity against mouse L1210 cells; type: functional, cell-based
[3] = Stability assessed as half life at pH 2; type: physicochemical; conditions: buffer

SMILES | half-life [2] [h] | IC50 (L1210) [nM] | also measured
COC(=O)c1cc2c([nH]1)C(=O)C=C1N(C(=O)OC(C)(C)C)C[C@H]3C[C@]123 | – | – | Stability [1]: Stable
O=C1C=C2NC[C@H]3C[C@@]23c2ccccc21 | 4200 | – | Stability [1]: Stable
O=C1C=C2N(c3ccccc3)C[C@H]3C[C@@]23c2ccccc21 | – | 1100 | half-life [3]: 171 h
COc1cc2cc(CN3C[C@H]4C[C@@]45C3=CC(=O)c3ccccc35)[nH]c2c(OC)c1OC | – | 1400 | t1/2 [2]: 1291.7 days
COC(=O)C1=NC2=C(OCc3ccccc3)C=C3N(C(=O)c4cc5cc(OC)c(OC)c(OC)c5[nH]4)C[C@H]4C[C@@]34C2=C1 | 0.417 | 5 | half-life [1]: 0.717 h
COC(=O)c1cc2c([nH]1)[C@@]13C[C@@H]1CN(C(=O)OC(C)(C)C)C3=CC2=O | – | 33 | –
CC(C)(C)OC(=O)N1C[C@H]2C[C@@]23C1=CC(=O)c1ccc(C#N)cc13 | 3.55 | – | –
COc1cc2cc(C(=O)N3C[C@H]4C[C@@]45C3=CC(=O)c3ccccc35)[nH]c2c(OC)c1OC | 133 | 0.02 | –
COC(=O)c1cc2c([nH]1)[C@@]13C[C@@H]1CN(C(=O)c1cc4cc(OC)c(OC)c(OC)c4[nH]1)C3=CC2=O | – | 0.05 | –
CC(C)(C)OC(=O)N1CC[C@H]2C[C@@]23C1=CC(=O)c1ccccc13 | – | – | half-life [1]: 544 h
CC(C)(C)OC(=O)N1C[C@H]2C[C@@]23C1=CC(=O)c1ccccc13 | – | – | Stability [1]: Stable
COC(=O)c1cc2c([nH]1)C(=O)C=C1N(C(=O)c3cc4cc(OC)c(OC)c(OC)c4[nH]3)C[C@H]3C[C@]123 [DUOCARMYCIN] | 177 | – | Stability [1]: Stable
COC(=O)c1ccc(N2C[C@H]3C[C@@]34C2=CC(=O)c2ccccc24)cc1 | – | 330 | half-life [3]: 138 h
COc1ccc(N2C[C@H]3C[C@@]34C2=CC(=O)c2ccccc24)cc1 | – | 3200 | half-life [3]: 198 h
COC(=O)N1C[C@H]2C[C@@]23C1=CC(=O)c1ccccc13 | 0.95 | – | –

Now from value to molecule, other results behind:

half-life [2] [h] | SMILES | IC50 (L1210) [nM] | also measured
0.6 | CNC(=O)N1C[C@H]2C[C@@]23C1=CC(=O)c1ccccc13 | – | –
3.93 | COC(=O)c1cccc2c1C(=O)C=C1N(C(=O)OC(C)(C)C)C[C@H]3C[C@]123 | 70 | –
1.3 | O=C1C=C2CC[C@H]3C[C@@]23c2ccccc21 | – | half-life [1]: 4 h
1.6 | CCC(=O)N1C[C@H]2C[C@@]23C1=CC(=O)c1ccccc13 | – | –
6.38 | CCS(=O)(=O)N1C[C@H]2C[C@@]23C1=CC(=O)c1ccccc13 | – | –
1.83 | COc1ccc2c(c1)[C@@]13C[C@@H]1CN(C(=O)OC(C)(C)C)C3=CC2=O | – | –
0.03 | CC(C)(C)OC(=O)N1CCC[C@H]2C[C@@]23C1=CC(=O)c1ccccc13 | 5000 | half-life [1]: 2.1 h
209 | Cc1cc2c(s1)[C@@]13C[C@@H]1CN(C(=O)OC(C)(C)C)C3=CC2=O | 25 | –
206 | Cc1csc2c1[C@@]13C[C@@H]1CN(C(=O)OC(C)(C)C)C3=CC2=O | 30 | –

Reference: ChEMBL document CHEMBL1153514, “Fundamental relationships between structure, reactivity, and biological activity for the duocarmycins and CC-1065” (J Med Chem, 2009)
